Source: PubChem BioAssay AID1259407 (Chemical Carcinogenesis Research Information System (CCRIS), 2018)
Calls of active or inactive are those of the source. No rule for the calls is given here.

System: CCRIS mutagenicity, Ames/micronucleus/aberration tests
Assay: CCRIS mutagenicity studies
Conditions: Test System: AMES SALMONELLA TYPHIMURIUM, Method: PREINCUBATION

Measured: mutagenic call

CC(=O)Nc1cccc(O)c1
inactive: Strain/Indicator: TA97, Metabolic Activation: HAMSTER, LIVER, S-9, AROCLOR 1254 (10 OR 30%) inactive; negative | Strain/Indicator: TA97, Metabolic Activation: NONE inactive; negative | Strain/Indicator: TA97, Metabolic Activation: RAT, LIVER, S-9, AROCLOR 1254 (10 OR 30%) inactive; negative | Strain/Indicator: TA98, Metabolic Activation: HAMSTER, LIVER, S-9, AROCLOR 1254 (10 OR 30%) inactive; negative | Strain/Indicator: TA98, Metabolic Activation: NONE inactive; negative | Strain/Indicator: TA98, Metabolic Activation: RAT, LIVER, S-9, AROCLOR 1254 (10 OR 30%) inactive; negative | Strain/Indicator: TA100, Metabolic Activation: HAMSTER, LIVER, S-9, AROCLOR 1254 (10 OR 30%) inactive; negative | Strain/Indicator: TA100, Metabolic Activation: NONE inactive; negative | Strain/Indicator: TA100, Metabolic Activation: RAT, LIVER, S-9, AROCLOR 1254 (10 OR 30%) inactive; negative | Strain/Indicator: TA1535, Metabolic Activation: HAMSTER, LIVER, S-9, AROCLOR 1254 (10 OR 30%) inactive; negative | Strain/Indicator: TA1535, Metabolic Activation: NONE inactive; negative | Strain/Indicator: TA1535, Metabolic Activation: RAT, LIVER, S-9, AROCLOR 1254 (10 OR 30%) inactive; negative
